The target of this experiment is T1, IGF-1R (Homo sapiens, UniProt P08069).
T1 construct: expressed in transfected cells; host or cells: Hek293 (Hek293-IGF1R)
Briefly: Cellular IGF-1R assay: capture ELISA (MSD) of receptor phosphorylation in Hek293 cells. The format is cell-based. The following applies: Hek293-IGF1R cells, 1 h pre-incubation, 10 min IGF stimulation, pIGF1R capture ELISA. The method, boiled down: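 IC50 from 4-parameter fit of IGF1R phosphorylation, normalised to IGF-stimulated and unstimulated controls, measured by MSD capture ELISA on lysates. Hek293-IGF1R cells in starvation medium got compound 1 h (top 10 μM, 3-fold steps, 0.1% DMSO) before a 10 min pulse of 1.0 ng/μL IGF.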
(ELISA stands for enzyme-linked immunosorbent assay.)

Consider 28 compounds from patent US20120165310A1, “ETHER DERIVATIVES OF BICYCLIC HETEROARYLS” (NOVARTIS AG, priority 2009, published 2012).

T1 sequence (P08069 31-1367): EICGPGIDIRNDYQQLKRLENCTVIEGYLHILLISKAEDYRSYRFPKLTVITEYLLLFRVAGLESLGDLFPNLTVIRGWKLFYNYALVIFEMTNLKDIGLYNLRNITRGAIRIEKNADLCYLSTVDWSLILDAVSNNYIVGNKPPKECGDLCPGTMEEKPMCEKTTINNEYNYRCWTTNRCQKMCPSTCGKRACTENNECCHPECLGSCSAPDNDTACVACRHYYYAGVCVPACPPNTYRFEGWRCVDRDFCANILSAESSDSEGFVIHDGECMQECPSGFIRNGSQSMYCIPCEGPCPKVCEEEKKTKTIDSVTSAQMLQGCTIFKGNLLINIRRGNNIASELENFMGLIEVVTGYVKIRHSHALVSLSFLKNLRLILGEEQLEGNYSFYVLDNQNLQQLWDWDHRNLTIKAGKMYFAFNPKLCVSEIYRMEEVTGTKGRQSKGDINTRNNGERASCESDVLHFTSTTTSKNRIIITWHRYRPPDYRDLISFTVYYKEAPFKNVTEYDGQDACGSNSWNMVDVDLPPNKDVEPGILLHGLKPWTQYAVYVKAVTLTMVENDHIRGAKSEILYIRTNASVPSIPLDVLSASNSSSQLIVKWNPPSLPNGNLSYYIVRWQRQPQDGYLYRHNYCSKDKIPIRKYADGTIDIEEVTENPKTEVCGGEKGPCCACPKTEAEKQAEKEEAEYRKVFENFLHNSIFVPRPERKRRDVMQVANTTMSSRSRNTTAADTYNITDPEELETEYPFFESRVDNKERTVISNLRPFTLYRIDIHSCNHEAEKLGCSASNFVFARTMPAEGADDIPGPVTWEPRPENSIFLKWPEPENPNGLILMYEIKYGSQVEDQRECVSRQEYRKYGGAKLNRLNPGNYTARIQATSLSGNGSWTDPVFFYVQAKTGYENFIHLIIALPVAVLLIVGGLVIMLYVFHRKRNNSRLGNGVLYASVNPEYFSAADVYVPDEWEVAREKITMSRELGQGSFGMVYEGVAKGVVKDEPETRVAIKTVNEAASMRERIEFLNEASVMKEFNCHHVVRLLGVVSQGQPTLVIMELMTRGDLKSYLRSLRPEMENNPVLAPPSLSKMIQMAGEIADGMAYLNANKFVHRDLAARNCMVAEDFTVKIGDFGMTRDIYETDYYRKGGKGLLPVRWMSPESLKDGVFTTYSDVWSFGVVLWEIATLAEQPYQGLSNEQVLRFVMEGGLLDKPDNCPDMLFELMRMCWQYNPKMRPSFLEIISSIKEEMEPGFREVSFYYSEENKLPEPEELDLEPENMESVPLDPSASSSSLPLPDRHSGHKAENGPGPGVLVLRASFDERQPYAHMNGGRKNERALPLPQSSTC

As to `Nc1ncnc2c1c(-c1cccc(OCC34CCC(CC3)O4)c1)cn2[C@H]1C[C@@H](N2CC(O)C2)C1` (relative stereo) [Example 191, 1-(cis-3-{4-Amino-5-[3-(7-oxa-bicyclo[2.2.1]hept-1-ylmethoxy)-phenyl]-pyrrolo[2,3-d]pyrimidin-7-yl}-cyclobutyl)-azetidin-3-ol], the IC50 (in general, the concentration needed to halve the response being measured) worked out at 138 nM.

For the compound `CC1(C)CN(C[C@H]2C[C@@H](n3cc(-c4cccc(OCC5CCCCO5)c4)c4c(N)ncnc43)C2)CCS1(=O)=O` (stereo partly drawn) [Example 105, 7-[cis-3-(2,2-Dimethyl-1,1-dioxo-1λ6-thiomorpholin-4-ylmethyl)-cyclobutyl]-5-[3-(tetrahydro-pyran-2-ylmethoxy)-phenyl]-7H-pyrrolo[2,3-d]pyrimidin-4-ylamine], the 50% inhibitory concentration (IC50) was found to be 409 nM.

`Nc1ncnc2c1c(-c1cccc(OCC34CCC(CC3)O4)c1)cn2C1CC(CNC(CO)CO)C1` (stereo not shown) [Example 168, 2-[(3-{4-amino-5-[3-(7-oxa-bicyclo[2.2.1]hept-1-ylmethoxy)-phenyl]-pyrrolo[2,3-d]pyrimidin-7-yl}-cyclobutylmethyl)-amino]-propane-1,3-diol] showed a half-inhibitory concentration (IC50) of 109 nM.

Turning to `NC(=O)[C@@H]1CCCN1C[C@H]1C[C@H](n2cc(-c3cccc(OCC45CCC(CC4)O5)c3)c3c(N)ncnc32)C1` [Example 78, (S)-1-(trans-3-{4-amino-5-[3-(7-oxa-bicyclo[2.2.1]hept-1-ylmethoxy)-phenyl]-pyrrolo[2,3-d]pyrimidin-7-yl}cyclobutylmethyl)-pyrrolidine-2-carboxylic acid amide], the concentration for half-maximal inhibition (IC50) came to 5 nM.

As for `Nc1ncnc2c1c(-c1cccc(OCC34CCC(CC3)O4)c1)cn2C1CN(C2CS(=O)(=O)C2)C1` [Example 224, 7-[1-(1,1-dioxo-thietan-3-yl)-azetidin-3-yl]-5-[3-(7-oxa-bicyclo[2.2.1]hept-1-ylmethoxy)-phenyl]-7H-pyrrolo[2,3-d]pyrimidin-4-ylamine], inhibition was half-maximal at 518 nM (IC50).

Compound `Nc1ncnc2c1c(-c1cccc(OCC34CCC(CC3)O4)c1)cn2C1CC(CN2CC(O)C2)C1` (stereo not shown) [Example 26, 1-(3-{4-amino-5-[3-(7-oxa-bicyclo[2.2.1]hept-1-ylmethoxy)-phenyl]-pyrrolo[2,3-d]pyrimidin-7-yl}-cyclobutylmethyl)azetidin-3-ol] gave a 50% inhibitory concentration (IC50) of 38 nM.

Compound `CC(=O)NN[C@H]1C[C@@H](n2cc(-c3cccc(OCC45CCC(CC4)O5)c3)c3c(N)ncnc32)C1` (relative stereo) [Example 193, Acetic acid N′-(cis-3-{4-amino-5-[3-(7-oxa-bicyclo[2.2.1]hept-1-ylmethoxy)-phenyl]-pyrrolo[2,3-d]pyrimidin-7-yl}-cyclobutyl)-hydrazide] displayed a half-inhibitory concentration (IC50) of 112 nM.

As to `Cc1cccc(NC[C@H]2C[C@@H](n3cc(-c4cccc(OCC56CCC(CC5)O6)c4)c4c(N)ncnc43)C2)n1` (relative stereo) [Example 194, 7-{cis-3-[(6-Methyl-pyridin-2-ylamino)-methyl]-cyclobutyl}-5-[3-(7-oxa-bicyclo[2.2.1]hept-1-ylmethoxy)-phenyl]-7H-pyrrolo[2,3-d]pyrimidin-4-ylamine], the half-inhibitory concentration (IC50) came out at 83 nM.

Consider `C[C@]1(O)C[C@@H](c2nc(-c3cccc(OCC45CCC(CC4)O5)c3)c3c(N)nccn32)C1` [Example 122], for which the IC50 worked out at 485 nM.

In turn, `Nc1ncnc2c1c(-c1cccc(OCC34CCC(CC3)O4)c1)cn2C1CC(CN2CC3CC2CS3)C1` [Example 227, 5-[3-(7-Oxa-bicyclo[2.2.1]hept-1-ylmethoxy)-phenyl]-7-{(trans-3-[(1S,4S)-1-(2-thia-5-aza-bicyclo[2.2.1]hept-5-yl)methyl]-cyclobutyl}-7H-pyrrolo[2,3-d]pyrimidin-4-ylamine] showed a concentration for half-maximal inhibition (IC50) of 74 nM.

Take `CN1CCN([C@H]2C[C@@H](c3nc(-c4cccc(OCC56CCC(CC5)O6)c4)c4c(N)nccn43)C2)CC1` [Example 181]: the half-maximal inhibitory concentration (IC50) is 47 nM.

The compound `Nc1ncnc2c1c(-c1cccc(OCC34CCC(CC3)O4)c1)cn2[C@H]1CC[C@@H](NC(=O)CC(F)(F)F)CC1` [Example 144, N-((1S,4S)-4-(5-(3-(7-oxabicyclo[2.2.1]heptan-1-ylmethoxy)phenyl)-4-amino-7H-pyrrolo[2,3-d]pyrimidin-7-yl)cyclohexyl)-3,3,3-trifluoropropanamide] showed an IC50 of 593 nM.

For the compound `Nc1ncnc2c1c(-c1cccc(OCC34CCC(CC3)O4)c1)cn2[C@H]1C[C@@]2(CNC(=O)CO2)C1` [Example 220, (E)-2-{4-amino-5-[3-(7-oxa-bicyclo[2.2.1]hept-1-ylmethoxy)-phenyl]-pyrrolo[2,3-d]pyrimidin-7-yl}-5-oxa-8-aza-spiro[3.5]nonan-7-one], inhibition was half-maximal at 364 nM (IC50).

In turn, `Nc1ncnc2c1c(-c1cccc(OCC34CCC(CC3)O4)c1)cn2[C@H]1CC[C@H](c2cnco2)CC1` [Example 151, 5-(3-(7-oxabicyclo[2.2.1]heptan-1-ylmethoxy)phenyl)-7-((1R,4S)-4-(oxazol-5-yl)cyclohexyl)-7H-pyrrolo[2,3-d]pyrimidin-4-a mine] yielded an IC50 of 271 nM.

`CC(=O)N[C@H]1C[C@@H](n2cc(-c3cccc(OCC45CCC(CC4)O5)c3)c3c(N)ncnc32)C1` (relative stereo) [Example 223, N-(cis-3-{4-amino-5-[3-(7-oxa-bicyclo[2.2.1]hept-1-ylmethoxy)-phenyl]-pyrrolo[2,3-d]pyrimidin-7-yl}-cyclobutyl)-acetamide] yielded a concentration for half-maximal inhibition (IC50) of 308 nM.

Compound `CN1CCN([C@H]2CC[C@@H](n3cc(-c4cccc(OC[C@@H]5CCC(C)(C)O5)c4)c4c(N)ncnc43)CC2)CC1` [Example 119, 5-(3-(((S)-5,5-dimethyltetrahydrofuran-2-yl)methoxy)phenyl)-7-((1S,4S)-4-(4-methylpiperazin-1-yl)cyclohexyl)-7H-pyrrolo[2,3-d]pyrimidin-4-amine] showed an IC50 of 36 nM.

`Nc1ncnc2c1c(-c1cccc(OCC34CCC(CC3)O4)c1)cn2[C@H]1C[C@@]2(COC(=O)O2)C1` [Example 197, (E)-2-{4-Amino-5-[3-(7-oxa-bicyclo[2.2.1]hept-1-ylmethoxy)-phenyl]-pyrrolo[2,3d]pyrimidin-7-yl}-5,7-dioxa-spiro[3.4]octan-6-one] displayed an IC50 of 99 nM.

Regarding `CC1(C)CCC(COc2cccc(-c3cn([C@H]4C[C@@H](CN5CCS(=O)(=O)CC5)C4)c4ncnc(N)c34)c2)O1` (single isomer, unassigned) [Example 67], the IC50 was found to be 15 nM.

Compound `CC1CCC(COc2cccc(-c3cn([C@H]4C[C@@H](CN5CCC5)C4)c4ncnc(N)c34)c2)O1` (stereo partly drawn) [Example 5, cis-7-(3-azetidin-1-ylmethyl-cyclobutyl)-5-[3-(5-methyl-tetrahydro-furan-2-ylmethoxy)-phenyl]-7H-pyrrolo[2,3-d]pyrimidin-4-ylamine] registered a concentration for half-maximal inhibition (IC50) of 51 to 58 nM.

For the compound `Nc1ncnc2c1c(-c1cccc(OCC34CCC(CC3)O4)c1)cn2[C@H]1C[C@@H](CN2C(=O)c3ccccc3C2=O)C1` [Example 108, 2-(((1S,3S)-3-(5-(3-(7-oxabicyclo[2.2.1]heptan-1-ylmethoxy)phenyl)-4-amino-7H-pyrrolo[2,3-d]pyrimidin-7-yl)cyclobutyl)methyl)isoindoline-1,3-dione], half-maximal inhibition (IC50) required 327 nM.

As to `CN1CCC(N2CCC(n3cc(-c4cccc(OCC5CCC(C)(C)O5)c4)c4c(N)ncnc43)CC2)CC1` (stereo not shown) [Example 60, 5-[3-(5,5-dimethyl-tetrahydro-furan-2-ylmethoxy)-phenyl]-7-(1′-methyl-[1,4′]bipiperidinyl-4-yl)-7H-pyrrolo[2,3-d]pyrimidin-4-ylamine], the IC50 was 339 nM.

In the case of `NC[C@]1(O)C[C@H](n2cc(-c3cccc(OCC45CCC(CC4)O5)c3)c3c(N)ncnc32)C1` [Example 201], the IC50 turned out to be 478 nM.

With `CC1(C)CCC(COc2cccc(-c3cn([C@H]4C[C@@H](CN5CC(C(N)=O)C5)C4)c4ncnc(N)c34)c2)O1` (relative stereo) [Example 49, 1-(cis-3-{4-amino-5-[3-(5,5-dimethyl-tetrahydro-furan-2-ylmethoxy)-phenyl]-pyrrolo[2,3-d]pyrimidin-7-yl}-cyclobutylmethyl)-azetidine-3-carboxylic acid amide], the half-maximal inhibitory concentration (IC50) was 192 to 241 nM.

In turn, `Nc1ncnc2c1c(-c1cccc(OC[C@@H]3CCCO3)c1)cn2[C@H]1C[C@@H](CN2CCS(=O)(=O)CC2)C1` [Example 156, 7-[cis-3-(1,1-Dioxo-1-thiomorpholin-4-ylmethyl)-cyclobutyl]-5-{3-[(S)-1-(tetrahydro-furan-2-yl)methoxy]-phenyl}-7H-pyrrolo[2,3-d]pyrimidin-4-ylamine] registered a concentration for half-maximal inhibition (IC50) of 166 nM.

Compound `Nc1ncnc2c1c(-c1cccc(OCC34CCC(CC3)O4)c1)cn2C1CC(O)(CN2CCCC2CO)C1` (single isomer, unassigned) [Example 209] displayed a 50% inhibitory concentration (IC50) of 60 nM.

With `CC1(C)CCC(COc2cccc(-c3cn([C@H]4C[C@@H](CN5CCC(F)CC5)C4)c4ncnc(N)c34)c2)O1` (single isomer, unassigned) [Example 59, 7-[cis-3-(4-fluoro-piperidin-1-ylmethyl)-cyclobutyl]-5-[3-(5,5-dimethyl-tetrahydro-furan-2-ylmethoxy)-phenyl]-7H-pyrrolo[2,3-d]pyrimidin-4-ylamine], the midpoint of inhibition, the IC50, lay at 18 nM.

Turning to `Nc1ncnc2c1c(-c1cccc(OCC34CCC(CC3)O4)c1)cn2C1CC(O)(CN2CCCC2CO)C1` (single isomer, unassigned) [Example 211], the IC50 is 224 nM.

For the compound `CN1CCN([C@H]2C[C@H](n3cc(-c4cccc(OCC56CCC(CC5)O6)c4)c4c(N)ncnc43)C2)CC1=O` (relative stereo) [Example 196, 4-(trans-3-{4-Amino-5-[3-(7-oxa-bicyclo[2.2.1]hept-1-ylmethoxy)-phenyl]-pyrrolo[2,3-d]pyrimidin-7-yl}cyclobutyl)-1-methyl-piperazin-2-one], it took 192 nM to reach half-maximal inhibition (IC50).
